Results reported in ChEMBL document CHEMBL1121640, “Analgesic narcotic antagonists. 6. 7 beta, 8 beta-Methano- and 7 beta, 8 beta-epoxydihydrocodeinone” (1981).
The source made the active and inactive calls. No cut-off for these calls is given here.

Assays:
Mus musculus [1] = test: Compound was tested for analgesic activity by writhing assay in mouse after subcutaneous administration; assay type: functional; conditions: sc
Rattus norvegicus [2] = test: Compound was tested for analgesic activity by tail-flick assay in rat after subcutaneous administration; assay type: functional; conditions: sc
Rattus norvegicus [3] = test: Compound was tested for analgesic activity by tail-flick assay in rat after subcutaneous administration; Inactive at 25 uM/Kg; assay type: functional, organism-based
Rattus norvegicus [4] = test: Compound was tested for narcotic antagonist activity determined using an intraperitoneal ED80 of morphine in rat tail-flick assay; Inactive at 25 uM/Kg; assay type: functional, organism-based
Rattus norvegicus [5] = test: Compound was tested for narcotic antagonist activity determined using an intraperitoneal ED80 of morphine in rat tail-flick assay; assay type: functional; conditions: ip
Mus musculus [6] = test: Compound was tested for analgesic activity by writhing assay in mouse after subcutaneous administration; Inactive at 32 uM/Kg; assay type: functional, organism-based
Rattus norvegicus [7] = test: Compound was tested for analgesic activity by tail-flick assay in rat after subcutaneous administration; Inactive at 30 uM/Kg; assay type: functional, organism-based
Rattus norvegicus [8] = test: Compound was tested for analgesic activity by tail-flick assay in rat after subcutaneous administration; Inactive at 65 uM/Kg; assay type: functional, organism-based
Rattus norvegicus [9] = test: Compound was tested for narcotic antagonist activity determined using an intraperitoneal ED80 of morphine in rat tail-flick assay; Inactive at 55 uM/Kg; assay type: functional, organism-based
Mus musculus [10] = test: Compound was tested for analgesic activity by writhing assay in mouse after subcutaneous administration; Inactive at 10 uM/Kg; assay type: functional, organism-based
Rattus norvegicus [11] = test: Compound was tested for analgesic activity by tail-flick assay in rat after subcutaneous administration; Inactive at 3 uM/Kg; assay type: functional, organism-based
Rattus norvegicus [12] = test: Compound was tested for narcotic antagonist activity determined using an intraperitoneal ED80 of morphine in rat tail-flick assay; Inactive at 50 uM/Kg; assay type: functional, organism-based
Rattus norvegicus [13] = test: Compound was tested for analgesic activity by tail-flick assay in rat after subcutaneous administration; Inactive at 32 uM/Kg; assay type: functional, organism-based

Compound: COc1ccc2c3c1O[C@H]1[C@@H](O)CC[C@H]4[C@@H](C2)N(C)CC[C@@]341 [DIHYDROCODEINE]
- ED50 (Mus musculus [1]): 3.8 µmol/kg
- ED50 (Rattus norvegicus [2]): > 22 µmol/kg

Compound: COc1ccc2c3c1O[C@H]1C(=O)CC(CCl)C4C(C2)N(C)CCC341 (stereo partly specified)
- ED50 (Mus musculus [1]): 12.2 µmol/kg
- ED50 (Rattus norvegicus [3]): inactive

Compound: COc1ccc2c3c1O[C@H]1C(=O)C=CC4[C@@H](C2)N(CC2CCC2)CC[C@@]341 (stereo partly specified)
- ED50 (Mus musculus [1]): 20.3 µmol/kg
- ED50 (Rattus norvegicus [4]): inactive

Compound: Oc1ccc2c(c1)[C@@]13CCCC[C@@]1(O)[C@@H](C2)N(CC1CCC1)CC3 [BUTORPHANOL]
- ED50 (Mus musculus [1]): 0.34 µmol/kg
- ED50 (Rattus norvegicus [5]): 2 µmol/kg

Compound: COc1ccc2c3c1O[C@H]1C(=O)CC[C@H]4[C@@H](C2)N(C)CC[C@]314 [HYDROCODONE]
- ED50 (Mus musculus [1]): 2.4 µmol/kg
- ED50 (Rattus norvegicus [2]): 5.2 µmol/kg

Compound: COc1ccc2c3c1OC1C(=O)[C@@H]4O[C@@H]4C4C(C2)N(C)CCC314 (stereo partly specified)
- ED50 (Mus musculus [6]): inactive
- ED50 (Rattus norvegicus [2]): > 30 µmol/kg

Compound: COc1ccc2c3c1O[C@H]1C(=O)CC(SCCO)C4C(C2)N(C)CCC341 (stereo partly specified)
- ED50 (Mus musculus [1]): > 25 µmol/kg
- ED50 (Rattus norvegicus [3]): inactive

Compound: COc1ccc2c3c1OC1C(=O)CC(SCCO)C4C(C2)N(CC2CC2)CCC314 (stereo unspecified)
- ED50 (Mus musculus [1]): 3.4 µmol/kg
- ED50 (Rattus norvegicus [5]): > 30 µmol/kg

Compound: COc1ccc2c3c1OC1C34CCN(C)C(C2)C4[C@H]2O[C@H]2[C@@]1(O)OC (stereo partly specified)
- ED50 (Mus musculus [1]): 18 µmol/kg
- ED50 (Rattus norvegicus [7]): inactive

Compound: CC(C)=CCN1CC[C@]2(C)c3cc(O)ccc3C[C@H]1[C@H]2C [(+)-PENTAZOCINE]
- ED50 (Mus musculus [1]): 13 µmol/kg
- ED50 (Rattus norvegicus [5]): 36.4 µmol/kg

Compound: COc1ccc2c3c1OC1[C@@H](O)[C@@H]4C[C@@H]4C4C(C2)N(C)CCC314 (stereo partly specified)
- ED50 (Mus musculus [1]): 1.79 µmol/kg
- ED50 (Rattus norvegicus [8]): inactive

Compound: COc1ccc2c3c1OC1[C@@H](O)[C@@H]4C[C@@H]4C4C(C2)N(CC2CCC2)CCC314 (stereo partly specified)
- ED50 (Mus musculus [1]): > 55 µmol/kg
- ED50 (Rattus norvegicus [9]): inactive

Compound: COc1ccc2c3c1O[C@H]1[C@@H](O)C=C[C@H]4[C@@H](C2)N(C)CC[C@@]341 [CODEINE]
- ED50 (Mus musculus [1]): 10.3 µmol/kg
- ED50 (Rattus norvegicus [2]): 75.1 µmol/kg

Compound: COc1ccc2c3c1OC1C(=O)[C@@H]4C[C@@H]4C4C(C2)N(C)CCC314 (stereo partly specified)
- ED50 (Mus musculus [1]): 0.43 µmol/kg
- ED50 (Rattus norvegicus [2]): 4.7 µmol/kg

Compound: COc1ccc2c3c1OC1C(=O)C=CC4C(C2)N(C)CCC314 (stereo unspecified)
- ED50 (Mus musculus [10]): inactive
- ED50 (Rattus norvegicus [11]): inactive

Compound: COc1ccc2c3c1OC1C(=O)[C@@H]4C[C@@H]4C4C(C2)N(CC2CC2)CCC314 (stereo partly specified)
- ED50 (Mus musculus [1]): 9 µmol/kg
- ED50 (Rattus norvegicus [5]): 8.7 µmol/kg

Compound: COc1ccc2c3c1OC1C(=O)[C@@H]4C[C@@H]4C4C(C2)N(CC2CCC2)CCC314 (stereo partly specified)
- ED50 (Mus musculus [1]): 12.4 µmol/kg
- ED50 (Rattus norvegicus [12]): inactive

Compound: COc1ccc2c3c1OC1[C@@H](O)[C@@H]4O[C@@H]4C4C(C2)N(C)CCC314 (stereo partly specified)
- ED50 (Mus musculus [6]): inactive
- ED50 (Rattus norvegicus [13]): inactive
